The subject of data set [1] is NCS-1. Nature of the data set: Peptide binding to NCS-1, preliminary data (technique not stated).
Data set [2] addresses T1, NCS-1 (Rattus norvegicus, UniProt P62168).
T1 construct: His tag (TEV-cleavable, pET-M11) (N, cleaved yes); made in house; host or cells: E. coli BL21 (DE3)
Nature of the data set: NMR titration / chemical shift mapping of peptide binding to NCS-1. The method, then:
(§1) An expression construct of Rattus norvegicus NCS-1 [6] was sub-cloned from a pGEX-6p plasmid expressing NCS-1 [36] into pET-M11 vector. The primers were designed based on the cDNA sequence obtained from GenBank accession no. L27421 with Nco-1 and Kpn-1 as restriction digest sites. The sense and antisense strands were 5′[…] 3′ and 5′[…] CTA TAC CAG CCC GTC GTA 3 ′ respectively. Polymerase chain reaction was carried out using KOD Hot Start DNA Polymerase from Novagen. Confirmation of the insert was obtained through DNA sequencing. The R102Q mutation was generated by site-directed mutagenesis.
(§2) NCS-1 plasmid was transformed into E.coli strain BL21 (DE3) (Novagen). Protein expression in Luria Broth (LB) and 2M9 minimal media performed by growing the cells to mid log (0.6–0.7 OD A^o600) at 30 °C; after induction with 1 mM IPTG the culture was left to grow overnight at 18 °C. ^15N NCS-1 and doubly labelled ^13C^15N proteins were expressed using 2M9 media containing ^15NH4Cl only or ^13C glucose and ^15NH4Cl as the carbon and nitrogen source. 1 ml of the starter culture was grown in LB overnight, centrifuged, and the pellet added to a 50 ml labelled media and left to grow overnight in 50 ml labelled culture. The overnight culture was used to inoculate the labelled growth medium so that the starting optical density was less than 0.1 A-600 and protein expressed as described above. Cells were harvested and resuspended into the lysis buffer (50 mM TrisHCl, 200 mM NaCl 5 mMCaCl2 pH 7.5 plus a tablet per litre of culture of Complete EDTA Free Protease inhibitor (Roche Applied Science).
NCS-1 was prepared in Tris buffer pH 6.8 in the presence of 5 mM MgCl2 and 5 mM CaCl2. Unless otherwise state, NMR spectra were recorded at 27 °C on Bruker DRX 800 and 600 MHz spectrometers equipped with CryoProbes. Data were processed using the Bruker Software TopSpin and analysed using CCPN software. Sequence-specific backbone and side-chain resonance assignment of NCS-1 was transferred from the previously reported assignments on unmyristoylated Ca^2+ loaded NCS-1 (Biological Magnetic Resonance Data Bank accession number 4378); however, due to differences in sample conditions and temperature, many resonances were re-assigned during the course of these studies using HNCA, HN(CO)CA, HNCO, HN(CA)CO, CBCA(CO)NH, CBCANH, HBHA(CO)NH and HCCH-TOCSY experiments. In addition, the resonance assignment for the aromatic side-chain had been incomplete. The aromatic side-chains were partially assigned using 2D [^1H, ^13C] -TROSY, and homonuclear TOCSY and NOESY spectra recorded in D2O.
(§3) Two peptides D2 and D2SR were used for the NMR studies. […] The peptides were first dissolved in minimal amounts of DMSO (approximately 1–2 µl) before adding the protein solution to achieve the appropriate peptide to protein ratio.
The minimum chemical-shift differences between free and D2-bound NCS-1 were expressed as: Δδ = √ {(ΔH/0.03)^2 + (ΔN/0.03)^2}. Values of Δδ greater than 0.07 were considered significant.
Figure 3 Interactions between NCS-1 and D2 Peptide monitored using NMR spectroscopy. (A) ^1H^15N HSQC spectra of ^15N,^13C NCS-1 (1 mM) in 50 mM Tris buffer, 50 mM NaCl, 5 mM CaCl2, pH 6.5, 300 K on Avance Bruker 800 MHz spectrometer in the absence (black) or in the presence of D2SR at a final concentration of 5 mM (red). (B) Sections of ^1H^15N HSQC spectra of ^15N,^13C NCS-1 showing the progression of peaks throughout the peptide titration (from black to red). Shown are the various characteristics of resonance perturbation ranging from complete line-broadening to gradual change in chemical shifts or a mixture of shifts and line-broadening. (C) ^1H^13C HSQC spectra of ^15N,^13C NCS-1 (1 mM) (black) in the presence of D2SR (final concentration of 5 mM) (red) indicating some of the resolved methyl groups with most significant shift changes.

In data set [3] the test system is NCS-1. Particulars: receptor residues 428–435; cited from earlier work. An excerpt: This seems surprising as these are the cytoplasmic residues in closest proximity to the transmembrane domain of the receptor and that in the structure of the dopamine D3 receptor (PDB accession 3PBL), the first two amino acids TF form part of penultimate helix VII of the receptor, rather than the C-terminus helix VIII.

Data set [4] addresses T1, NCS-1. Nature of the data set: Intrinsic tryptophan fluorescence titration of peptide binding to wild type NCS-1. The method, then:
as §1
as §2, with “Cells were harvested and resuspended into the lysis buffer (50 mM TrisHCl, 200 mM NaCl 5 mMCaCl2 pH 7.5 plus a tablet per litre of culture of Complete EDTA Free Protease inhibitor (Roche Applied Science).” left out
(§4) To monitor intrinsic tryptophan fluorescence of NCS-1 proteins, [37], purified recombinant NCS-1 at a concentration of 1 µM in a calcium free buffer (20 mM HEPES, 139 mM NaCl, 2 mM ATP, 5 mM EGTA, 5 mM nitrolotriacetic acid, pH 7.4) were excited at room temperature with 280 nm light, and their emission spectra from 290–410 nm were measured, using a Jasco FP-6300 spectrofluorometer (Tokyo, Japan). The concentration of free calcium was increased by addition of CaCl2 to give a calculated free Ca^2+ concentration of 1 µM and an additional emission spectrum were measured. The D2 peptide was then added to give incremental increase in peptide concentration with emission spectra measured after each addition. The data for the measured fluorescence change at each peptide concentration were fitted to a logistic fit using non-linear curve fitting in OriginPro (Microcal).
Figure 2 Binding of the dopamine D2 receptor C-terminus to NCS-1 monitored using tryptophan fluorescence. (A) The spectra represent intrinsic tryptophan fluorescence of NCS-1 before and after addition 1 µM Ca^2+ and after subsequent addition of the D2SR peptide. (B) Extent of the changes in tryptophan fluorescence following sequential additions of D2SR peptide to the final concentrations indicated. […]

The nature of data set [5]: Solubility of peptides in aqueous buffer. The class given is physicochemical.
Text: The peptide (hereafter referred to as D2 peptide) used here corresponds to residues 428–443 of the human D2 receptor. The synthetic D2 peptide ([…]) and its modified form D2SR ([…]), were purchased from Peptide Protein Research Ltd., Fareham, PO15 6DP, UK. The shorter form, corresponding to residues 428–435 ([…]) were, purchased from GenicBio, China. The peptides was delivered >95% pure. […] Therefore, in all the experiments, peptide samples were first dissolved in a minimal amount of DMSO and then diluted with the relevant buffer. If necessary, pH values of the samples were re-adjusted to the desired value.
as §3

The target of a further data set is T2, R102Q NCS-1 (Rattus norvegicus, UniProt P62168, R102Q).
T2 construct: His tag (TEV-cleavable, pET-M11) (N, cleaved yes); made in house; host or cells: E. coli BL21 (DE3)
Nature of the data set: Intrinsic tryptophan fluorescence titration of peptide binding to R102Q NCS-1. The method, then: as §1, §4
Figure 6 Significant line-broadening in the C-terminal region of NCS-1 and effect of the R102Q mutation on peptide binding. […] (B) Extent of the changes in tryptophan fluorescence following sequential additions of D2SR peptide to the final concentrations indicated in the presence of 1 µM Ca^2+. […] (C) Curve fitting of data from separate tryptophan fluorescence experiments enables determination of the concentration of D2SR peptide required for half-maximal binding and the Hill coefficient for wild type and R102Q NCS-1. […]

The mark [6] stands for this setting: up to a 10-fold excess of peptide.

Results on 4 sequences are retold here after publication PMC3218054, “Characterisation of the Interaction of the C-Terminus of the Dopamine D2 Receptor with Neuronal Calcium Sensor-1” (PLoS ONE, 2011).

Read-outs that look alike come from different tables or passages of the source. Ends that are not written are not given here.

T1 sequence (P62168 whole entry): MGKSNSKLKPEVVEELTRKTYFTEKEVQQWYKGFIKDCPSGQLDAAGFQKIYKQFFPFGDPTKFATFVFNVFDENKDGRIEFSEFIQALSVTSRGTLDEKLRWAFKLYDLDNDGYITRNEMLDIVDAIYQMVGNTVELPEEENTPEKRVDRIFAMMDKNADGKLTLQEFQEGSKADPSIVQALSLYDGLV
T2 sequence (P62168 whole entry R102Q): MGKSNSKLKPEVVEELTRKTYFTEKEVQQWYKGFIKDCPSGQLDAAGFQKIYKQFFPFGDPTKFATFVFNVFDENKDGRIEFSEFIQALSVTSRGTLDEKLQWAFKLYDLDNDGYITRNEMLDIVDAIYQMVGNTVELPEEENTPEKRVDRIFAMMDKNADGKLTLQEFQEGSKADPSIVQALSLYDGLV

Turning to NIEFRKAFLKILHS, the “affinity for NCS-1 relative to TFNIEFRKAFLKILHS” value in the data set with NCS-1 [1] was “able to bind NCS-1 with similar affinity to […]”.

Regarding “TFNIEFRK [shorter form, corresponding to residues 428–435 of the D2 receptor]”, the “interaction with NCS-1 by NMR titration” value at NCS-1 [2] (setting [6]) was “no evidence for an interaction”. For the same sequence, the “binding to NCS-1 (yeast 2-hybrid)” value with NCS-1 [3] is “shortest peptide that could bind NCS-1”. Also, the “ability to bind NCS-1 (restated finding, binding assays)” value on NCS-1 [4] (8-residue peptide, binding assays = fluorescence and NMR titrations) is “not able to bind NCS-1”. Moreover, the “interaction with NCS-1 by fluorescence titration” value on NCS-1 [4] (setting [6]) is recorded as “no evidence for an interaction”.

On to TFNIEFRKAFLKILHC [D2 peptide], for which, in data set [5], the “solubility in aqueous buffer” value is on record as “rather insoluble in aqueous buffer”.

As to TFNIEFRKAFLKILHSR [D2SR], the “solubility in aqueous buffer” value in data set [5] (peptides first dissolved in DMSO, then diluted with buffer) is reported as “rather insoluble in aqueous buffer”. Further, in data set [5] (two extra amino acids intended to increase solubility), the “solubility improvement over D2 peptide” value is recorded as “solubility improvement was only marginal”. Also, the Hill coefficient entry at R102Q NCS-1 (D2SR, R102Q NCS-1, 1 µM Ca^2+, logistic fit, n = 4) is given as “around 1.5”. In addition, the “increase in affinity of the protein for D2SR by R102Q mutation” value at R102Q NCS-1 (R102Q (n = 4) versus wild type (n = 5) NCS-1, 1 µM Ca^2+, unpaired Student's t-test) came to 2.07 fold. Also, at R102Q NCS-1 (compared with wild-type NCS-1), the “affinity of binding to R102Q versus wild type NCS-1” value is “affinity of binding was increased in the mutant”. On NCS-1 [2] (HSQC titration, D2SR), the “exchange regime of NCS-1 resonances” value is “intermediate to fast exchange regime”; the “least affected NCS-1 regions” value is “helices1, 5, 8 and part of 2”; the “most affected NCS-1 regions, mapped onto 1G8I” value is reported as “residues located either in the hydrophobic ligand-binding crevice or in the regions linking the helical regions of the EF hands”. The “NCS-1 resonance perturbation (chemical shift changes/broadening)” value at NCS-1 [2] (^1H-^15N and ^1H-^13C HSQC of ^15N,^13C NCS-1, 27 °C and 35 °C) is “At both temperatures chemical shift changes and/or broadening of specific NCS-1 resonances were observed”. Besides, the “line-broadening of C-terminal residues 180–190 (helix 11) of NCS-1” value on NCS-1 [2] (^1H^15N HSQC, peptide titration, 1 mM NCS-1, 0.5 mM D2SR, pH 6.5, 300 K) is on record as “line-broadening occurring at sub-stoichiometric concentrations of D2SR”. The “change in NCS-1 tryptophan fluorescence above that following addition of 1 µM free Ca^2+” value at NCS-1 [4] (1 µM free Ca^2+) is reported as “additional increase in fluorescence of a similar magnitude”. The sequence further came in with a Hill coefficient at NCS-1 [4] (D2SR, wild type NCS-1, 1 µM free Ca^2+, logistic fit, n = 5) of about 1.5.
